Consider two substances from patent US20060211606A1, “Peptides” (priority 2005, published 2006).

Assay [1] deals with normal craniofacial (masseter) primary cultures. As to the kind of experiment: Desmin positive cell proliferation, normal craniofacial (masseter) primary cultures. Conditions: for desmin positive cells as percentage of total cells: peptide alone, 10 ng/ml, serum-free defined media, mean±s.d. Type of assay: cell-based, human. From the text:
(§1) Human primary muscle cell cultures were isolated as previously described [Lewis et al., 2000; Sinanan et al., 2004]. Briefly, following informed consent, craniofacial (masseter) muscle biopsies were obtained from healthy adult and CMD patients during elective surgery at the Eastman and Middlesex Hospitals, London, UK. Human lower limb (vastus lateralis) muscle samples were obtained from consenting, adult healthy, FSHD and ALS patients by needle biopsy under local anaesthesia at the Royal Free Hospital, London, UK. Biopsies were pooled from several patients with the same disorder to obtain sufficient cell numbers in the primary cultures. These were washed with antibiotic (penicillin, 100 U/ml; streptomycin, 100 μg/ml; fungizone, 2.5 μg/ml; Invitrogen) supplemented DMEM (high glucose; Invitrogen), scissor-minced and tissue fragments plated into 0.2% gelatin-coated (Sigma-Aldrich) T150 cm^2 culture flasks (Helena Biosciences). Explant cultures were incubated in serum-containing Growth Media (sGM), composed of DMEM, 20% FCS (PAA Laboratories), penicillin (100 U/ml) and streptomycin ([…]) (Invitrogen), and maintained at 37° C. in humidified 95% air with 5% CO2. The first wave of migration of mononuclear cells from the explant was designated the […]-wave and this population was used throughout this study. Migratory human muscle cell were enzymatically harvested using trypsin-EDTA (Invitrogen) and subcultured in sGM until 70-80% confluency. Passage number x (Px), was defined as the xth sequential harvest of subconfluent cells. All experiments were performed using P3-5 cohorts. The expanded cells were then stored under cryogenic conditions until they were used in the experiments described below. At least 6 runs were made for each of the treatments used for each diseased muscle culture as well as for the two types of healthy muscle.
(§2) Assessment of the number of myogenic precursors was performed as described previously (Sinanan et al., 2004). Cells were re-plated on gelatin-coated (0.2%) 13 mm coverslips at an initial density of 4.5×10^3 cells cm^−2. […]
(§3) At the appropriate time-points, cells were fixed with methanol for 10 min (−20° C.), followed by detergent permeabilization with 0.5% Triton-X100 for 10-15 min. […] Cell-associated fluorescence and morphology, were visualized by epi-fluorescence and Leica Modulation Contrast (LMC) microscopy respectively, using an inverted Leica DMIRB microscope equipped with Leica FW4000 image processing software. For the proliferation assay, all blue and green fluorescent positive cells were counted in a field. […]

The subject of assay [2] is normal lower limb (quadriceps) primary cultures. Kind of assay: Desmin positive cell proliferation, normal lower limb (quadriceps) primary cultures. The following applies: for desmin positive cells as percentage of total cells: peptide alone, 10 ng/ml, mean±s.d. It counts as cell-based, human.
Description: as §1, with “The expanded cells were then stored under cryogenic conditions until they were used in the experiments described below. At least 6 runs were made for each of the treatments used for each diseased muscle culture as well as for the two types of healthy muscle.” left out
as §3

For a further assay, the system named is infarcted ovine heart. As to the kind of experiment: Ovine myocardial infarction, intracoronary injection, ejection fraction by echocardiography. Conditions: ovine MI; intracoronary injection 15 minutes after MI; ejection fraction day 6 vs day 1. Type of assay: in vivo. The source says: A myocardial infarction (MI) was induced in ovine hearts by catheterising a marginal branch of the circumflex coronary artery and injecting a small bolus of microspheres to induce localised ischemia. […] As a control, mature liver-type IGF-I was used.

Assay [3] deals with muscle cells from amyotrophic lateral sclerosis (ALS). As to the kind of experiment: Desmin positive cell proliferation, muscle cells from amyotrophic lateral sclerosis (ALS). The following applies: for desmin positive cells as percentage of total cells: peptide alone, 10 ng/ml, mean±s.d. Type of assay: cell-based, human.
Description: as §1, §2, §3

For assay [4], the system named is primary human muscle cell cultures. Kind of assay: Creatine phosphokinase (CPK) assay of myogenic differentiation / myotube formation. It counts as cell-based. Conditions: for effect on myoblast differentiation and myotube formation: differentiation medium, 48 hours, peptide alone (IGF-I 10 ng/ml). On the procedure:
This assay was performed using previously published protocols [Auluck et al., 2005]. Measurement of CPK allows for the quantitative comparison of myogenesis [Goto et al., 1999], as it is a marker of myotube formation. The enzyme CPK catalyzes the reversible phosphorylation of adenosine-5-diphosphate (ADP) to form adenosine-5-triphosphate (ATP) and free creatine. The reaction may be followed in either direction by measuring the formation of inorganic phosphorus, an end-product of the reaction which is proportional to CPK activity. This was measured using the calorimetric method based on the generation of inorganic phosphate [Fiske and Subbarow, 1925] procedure. This was then expressed in terms of the protein content of the culture.
Previously expanded primary human muscle cell cultures were re-plated at 10×10^4 cells/well in 0.2% gelatin coated 96 well plates. […] (Sigma-Aldrich IGF-I ER2). After 48 hours, cells were washed twice with ice cold PBS and then stored frozen in 0.5 mM glycine buffer (pH 6.75) at −70° C. Fixed cells were lysed by rapid thawing and CPK assay kit used according to manufacturers instructions (Sigma-Aldrich). The protein concentration of each sample was determined against an albumin standard curve using the Pierce Micro BCA Kit (PerBio Science, UK Ltd., Northumberland, UK).

A further assay deals with muscle cells from FSHD. Kind of assay: Desmin positive cell proliferation, muscle cells from FSHD. It counts as cell-based, human. The following applies: for desmin positive cells as percentage of total cells: peptide alone, 10 ng/ml, mean±s.d.
Description: as §1, with “The expanded cells were then stored under cryogenic conditions until they were used in the experiments described below. At least 6 runs were made for each of the treatments used for each diseased muscle culture as well as for the two types of healthy muscle.” left out
as §3

[5] abbreviates: stabilised peptide in combination with IGF-I.

“Also recorded” adds a separate entry of the source. *1 amine or outer side, *2 acyl side, *3 side chain or, on linkers, in order; H or OH if unused. [ ]: non-standard residue; d: D form. PEG (Jeffamine) = not defined here; Suc = O=C(CCC(=O)[*:2])[*:1]

Take “IGF-I: IGF-I receptor binding domain encoded by Exons 3 and 4, common to all splice variants, approximately 70 amino acids [reference compound]”: the “desmin positive cells as percentage of total cells” value in assay [1] (normal craniofacial) is 58.4±4.2%; in assay [2] it was 47.1±3.5%; in assay [3] it was 4.7±1.4%; in the assay with muscle cells from FSHD, 14.1±1.6%. Further, in the assay with infarcted ovine heart, the “effect on percentage of viable myocardium and ejection fraction” value is given as “much smaller effect”. Further, the “effect on myoblast differentiation and myotube formation” value in assay [4] is on record as “apparently stimulates myotube formation”; in assay [4] (listed as mature IGF-I), “enhanced differentiation”.
Consider “stabilised peptide: SEQ ID NO: 15 with D-Arginine at positions 14 and 15, N-terminus attached to PEG (Jeffamine) via succinic acid bridge, amidated at C-terminus ({PEG (Jeffamine)-Suc}-YQPPSTNKNTKSQ[dR][dR]KGSTFEEHK-NH2; reading uncertain)”, for which the “desmin positive cells as percentage of total cells” value in assay [1] (normal craniofacial) turned out to be 68.8±3.9%; in assay [2], 57.9±3.2%; in assay [3] it was 7.2±0.8%; in the assay with muscle cells from FSHD, 20.4±2.1%. For the same substance, the “desmin positive cells as percentage of total cells, IGF-I added” value in assay [1] (normal craniofacial, stabilised peptide in combination with IGF-I (10 ng/ml each)) is 59.5±4.2%; in assay [2] (setting [5]) it was 38.8±0.6%; in assay [3] (setting [5]), 5.3±1.0%; with muscle cells from FSHD (setting [5]), 14.5±1.4%. In addition, the “desmin positive cells as percentage of total cells, plus anti-IGF-I receptor antibody Ab-1” value is 71.1±6.2% in assay [1] (normal muscle, stabilised peptide plus Ab-1) and 6.5±0.8% in assay [3] (stabilised peptide plus Ab-1). Also, the “effect on percentage of viable myocardium and ejection fraction” value with infarcted ovine heart is “markedly increase the percentage of viable myocardium and the ejection fraction”. In assay [4], the “effect on myoblast differentiation and myotube formation” value is “no effect on myotube formation; also recorded: did not facilitate primary myoblast differentiation and myotube formation”. Also, the “effect on differentiation in the presence of 10 ng/ml IGF-I” value in assay [4] (stabilised peptide with 10 ng/ml IGF-I, dose-dependent) is on record as “prevented differentiation to the myoblast fusion competent stage”.
